Measurements: patent US4442044A, “Process for preparing monoesters and diesters of N-alkyl substituted amino methyl phosphonic acid” (priority 1983, dated 1984)

Key:
Assay in all cases: post-emergent herbicidal activity, greenhouse
Format in all cases: in vivo
Settings in all cases: Table I
Yellow Nutsedge = system: Yellow Nutsedge
Excerpt: (§1) A good grade of top soil is placed in aluminum pans having holes in the bottom and compacted to a depth of 0.95 to 1.27 cm. from the top of the pan. A predetermined number of seeds of each of several dicotyledonous and monocotyledonous annual plant species and/or vegetative propagules for the perennial plant species were placed on the soil and pressed into the soil surface. The seeds and/or vegetative propagules are covered with soil and leveled. The pans are then placed on a sand bench in the greenhouse and watered from below as needed. After the plants reach the desired age (two to three weeks), each pan except for the control pans is removed individually to a spraying chamber and sprayed by means of an atomizer operating at a positive air pressure of approximately 1.46 kg/cm^2 absolute. The atomizer contains 6 ml. of a solution or suspension of the chemical. In that 6 ml., is an amount of a cyclohexanone emulsifying agent mixture to give a spray solution or suspension which contains about 0.4% by weight of the emulsifier. The spray solution or suspension contains a sufficient amount of the candidate chemical in order to give application rates corresponding to those set forth in the tables. The spray solution is prepared by taking an aliquot of a 1.0% by weight stock solution or suspension of the candidate chemical in an organic solvent such as acetone or tetrahydrofuran or in water. The emulsifying agent employed is a mixture comprising 35 weight percent butylamine dodecylbenzene sulfonate and 65 weight percent of a tall oil ethylene oxide condensate having about 11 moles of ethylene oxide per mole of tall oil. The pans are returned to the greenhouse and watered as before and the injury to the plants as compared to the control is observed at approximately two and four weeks as indicated in the tables under WAT and the results recorded. In some instances, the two-week observations are omitted.
(§2) The post-emergent herbicidal activity index used in Tables I and II is as follows: […]

Smartweed = system: Smartweed
Excerpt: as §1, §2

Johnsongrass = system: Johnsongrass
Excerpt: as §1, §2

Morningglory = system: Morningglory
Excerpt: as §1, §2

Cocklebur = system: Cocklebur
Excerpt: as §1, §2

Barnyardgrass = system: Barnyardgrass
Excerpt: as §1, §2

Quackgrass = system: Quackgrass
Excerpt: as §1, §2

Lambsquarters = system: Lambsquarters
Excerpt: as §1, §2

Velvetleaf = system: Velvetleaf
Excerpt: as §1, §2

Canada Thistle = system: Canada Thistle
Excerpt: as §1, §2

Downy Brome = system: Downy Brome
Excerpt: as §1, §2

**Q.** How did the “post-emergent herbicidal activity index” value (Yellow Nutsedge; 2 WAT, 5.6 kg/h) turn out when `CCOC(=O)CNCP(=O)(OC(C)(C)C#N)OC(C)(C)C#N` [Example 2, glycine, N-[bis(1-cyano-1-methyl-ethoxy)phosphinylmethyl], ethyl ester] was run?
**A.** The value was 0 (0-24% control).

**Q.** And the “post-emergent herbicidal activity index” value (Yellow Nutsedge; 4 WAT, 11.2 kg/h)?
**A.** The value was 0 (0-24% control).

**Q.** What about the “post-emergent herbicidal activity index” value (Yellow Nutsedge; 4 WAT, 56.0 kg/h) of the same compound?
**A.** The value was 0 (0-24% control).

**Q.** And the “post-emergent herbicidal activity index” value (Smartweed; 2 WAT, 5.6 kg/h)?
**A.** Its value is 0 (0-24% control).

**Q.** What about the “post-emergent herbicidal activity index” value (Smartweed; 4 WAT, 11.2 kg/h) of the same compound?
**A.** The value was 0 (0-24% control).

**Q.** And the “post-emergent herbicidal activity index” value (Smartweed; 4 WAT, 56.0 kg/h)?
**A.** The value was 1 (25-49% control).

**Q.** And the “post-emergent herbicidal activity index” value (Johnsongrass; 2 WAT, 5.6 kg/h)?
**A.** The value was 0 (0-24% control).

**Q.** What about the “post-emergent herbicidal activity index” value (Johnsongrass; 4 WAT, 11.2 kg/h) of the same compound?
**A.** The value was 0 (0-24% control).

**Q.** And the “post-emergent herbicidal activity index” value (Johnsongrass; 4 WAT, 56.0 kg/h)?
**A.** The value was 0 (0-24% control).

**Q.** What about the “post-emergent herbicidal activity index” value (Morningglory; 2 WAT, 5.6 kg/h) of the same compound?
**A.** The value was 0 (0-24% control).

**Q.** What about the “post-emergent herbicidal activity index” value (Morningglory; 4 WAT, 11.2 kg/h) of the same compound?
**A.** Its value is 0 (0-24% control).

**Q.** And the “post-emergent herbicidal activity index” value (Morningglory; 4 WAT, 56.0 kg/h)?
**A.** Its value is 1 (25-49% control).

**Q.** And the “post-emergent herbicidal activity index” value (Cocklebur; 2 WAT, 5.6 kg/h)?
**A.** Its value is 0 (0-24% control).

**Q.** What about the “post-emergent herbicidal activity index” value (Cocklebur; 4 WAT, 11.2 kg/h) of the same compound?
**A.** The value was 0 (0-24% control).

**Q.** What about the “post-emergent herbicidal activity index” value (Cocklebur; 4 WAT, 56.0 kg/h) of the same compound?
**A.** The value was 1 (25-49% control).

**Q.** And the “post-emergent herbicidal activity index” value (Barnyardgrass; 2 WAT, 5.6 kg/h)?
**A.** The value was 0 (0-24% control).

**Q.** What about the “post-emergent herbicidal activity index” value (Barnyardgrass; 4 WAT, 11.2 kg/h) of the same compound?
**A.** Its value is 1 (25-49% control).

**Q.** And the “post-emergent herbicidal activity index” value (Barnyardgrass; 4 WAT, 56.0 kg/h)?
**A.** The value was 0 (0-24% control).

**Q.** And the “post-emergent herbicidal activity index” value (Quackgrass; 2 WAT, 5.6 kg/h)?
**A.** Its value is 0 (0-24% control).

**Q.** And the “post-emergent herbicidal activity index” value (Quackgrass; 4 WAT, 11.2 kg/h)?
**A.** The value was 0 (0-24% control).

**Q.** What about the “post-emergent herbicidal activity index” value (Quackgrass; 4 WAT, 56.0 kg/h) of the same compound?
**A.** The value was 0 (0-24% control).

**Q.** What about the “post-emergent herbicidal activity index” value (Lambsquarters; 2 WAT, 5.6 kg/h) of the same compound?
**A.** The value was 0 (0-24% control).

**Q.** And the “post-emergent herbicidal activity index” value (Lambsquarters; 4 WAT, 11.2 kg/h)?
**A.** Its value is 0 (0-24% control).

**Q.** What about the “post-emergent herbicidal activity index” value (Lambsquarters; 4 WAT, 56.0 kg/h) of the same compound?
**A.** The value was 1 (25-49% control).

**Q.** What about the “post-emergent herbicidal activity index” value (Velvetleaf; 2 WAT, 5.6 kg/h) of the same compound?
**A.** The value was 0 (0-24% control).

**Q.** What about the “post-emergent herbicidal activity index” value (Velvetleaf; 4 WAT, 11.2 kg/h) of the same compound?
**A.** The value was 0 (0-24% control).

**Q.** And the “post-emergent herbicidal activity index” value (Velvetleaf; 4 WAT, 56.0 kg/h)?
**A.** The value was 0 (0-24% control).

**Q.** What about the “post-emergent herbicidal activity index” value (Canada Thistle; 4 WAT, 56.0 kg/h) of the same compound?
**A.** Its value is 4 (100% control).

**Q.** And the “post-emergent herbicidal activity index” value (Downy Brome; 2 WAT, 5.6 kg/h)?
**A.** Its value is 0 (0-24% control).

**Q.** What about the “post-emergent herbicidal activity index” value (Downy Brome; 4 WAT, 11.2 kg/h) of the same compound?
**A.** Its value is 0 (0-24% control).

**Q.** What about the “post-emergent herbicidal activity index” value (Downy Brome; 4 WAT, 56.0 kg/h) of the same compound?
**A.** The value was 0 (0-24% control).

**Q.** With `C#CCNCP(=O)(OC(C)C#N)OC(C)C#N` (centres unmarked) [Example 3, phosphonic acid, [(2-propnylamino)methyl]-,bis(1-cyanoethyl)ester] as the compound, how does the “post-emergent herbicidal activity index” value (Yellow Nutsedge; 2 WAT, 11.2 kg/h) read?
**A.** Its value is 0 (0-24% control).

**Q.** What about the “post-emergent herbicidal activity index” value (Smartweed; 2 WAT, 11.2 kg/h) of the same compound?
**A.** The value was 1 (25-49% control).

**Q.** And the “post-emergent herbicidal activity index” value (Johnsongrass; 2 WAT, 11.2 kg/h)?
**A.** Its value is 0 (0-24% control).

**Q.** And the “post-emergent herbicidal activity index” value (Morningglory; 2 WAT, 11.2 kg/h)?
**A.** The value was 0 (0-24% control).

**Q.** And the “post-emergent herbicidal activity index” value (Cocklebur; 2 WAT, 11.2 kg/h)?
**A.** The value was 0 (0-24% control).

**Q.** And the “post-emergent herbicidal activity index” value (Barnyardgrass; 2 WAT, 11.2 kg/h)?
**A.** The value was 2 (50-74% control).

**Q.** What about the “post-emergent herbicidal activity index” value (Quackgrass; 2 WAT, 11.2 kg/h) of the same compound?
**A.** The value was 0 (0-24% control).

**Q.** What about the “post-emergent herbicidal activity index” value (Lambsquarters; 2 WAT, 11.2 kg/h) of the same compound?
**A.** The value was 0 (0-24% control).

**Q.** What about the “post-emergent herbicidal activity index” value (Velvetleaf; 2 WAT, 11.2 kg/h) of the same compound?
**A.** The value was 0 (0-24% control).

**Q.** And the “post-emergent herbicidal activity index” value (Canada Thistle; 2 WAT, 11.2 kg/h)?
**A.** Its value is 0 (0-24% control).

**Q.** What about the “post-emergent herbicidal activity index” value (Downy Brome; 2 WAT, 11.2 kg/h) of the same compound?
**A.** Its value is 0 (0-24% control).

**Q.** Which results are given for `CC(C#N)OP(=O)(CNC(C)(C)C)OC(C)C#N` (centres unmarked) [Example 4, phosphonic acid, [[(1,1-dimethylethyl)amino]methyl]-,bis(1-cyanoethyl) ester]?
**A.** post-emergent herbicidal activity index (Yellow Nutsedge; 2 WAT, 11.2 kg/h): 0 (0-24% control); post-emergent herbicidal activity index (Smartweed; 2 WAT, 11.2 kg/h): 1 (25-49% control); post-emergent herbicidal activity index (Johnsongrass; 2 WAT, 11.2 kg/h): 0 (0-24% control); post-emergent herbicidal activity index (Morningglory; 2 WAT, 11.2 kg/h): 0 (0-24% control); post-emergent herbicidal activity index (Cocklebur; 2 WAT, 11.2 kg/h): 0 (0-24% control); post-emergent herbicidal activity index (Barnyardgrass; 2 WAT, 11.2 kg/h): 1 (25-49% control); post-emergent herbicidal activity index (Quackgrass; 2 WAT, 11.2 kg/h): 0 (0-24% control); post-emergent herbicidal activity index (Lambsquarters; 2 WAT, 11.2 kg/h): 1 (25-49% control); post-emergent herbicidal activity index (Velvetleaf; 2 WAT, 11.2 kg/h): 0 (0-24% control); post-emergent herbicidal activity index (Canada Thistle; 2 WAT, 11.2 kg/h): 0 (0-24% control); post-emergent herbicidal activity index (Downy Brome; 2 WAT, 11.2 kg/h): 0 (0-24% control)
